Laboratory results from BindingDB's records for doi:10.1016/s0960-894x(01)00038-5 (Glaxosmithkline, 2001).

Molecular target: Lipoprotein-associated phospholipase A2 (Rattus norvegicus)
Test: Concentration required for inhibition ofLipoprotein associated phospholipase A2 in rat at dose 2 umol/kg/h

IC50: 533 nM
SMILES: CCCCCCCCCCCCN(C)C(=O)Cn1cc(Cc2cnc(=O)n(CC(=O)O)c2)c(=O)nc1SCc1ccc(F)cc1 [{5-[1-[(Dodecyl-methyl-carbamoyl)-methyl]-2-(4-fluoro-benzylsulfanyl)-4-oxo-1,4-dihydro-pyrimidin-5-ylmethyl]-2-oxo-2H-pyrimidin-1-yl}-acetic acid]
